Laboratory results taken from the supplement of paper PMC10307832.

Legend:
Assay in all cases: relative viability (nuclei count vs DMSO), 5 days (fraction); higher = more cells survive
Etoposide + Phenformin = compound: COc1cc([C@@H]2c3cc4c(cc3[C@@H](O[C@@H]3O[C@@H]5CO[C@@H](C)O[C@H]5[C@H](O)[C@H]3O)[C@H]3COC(=O)[C@H]23)OCO4)cc(OC)c1O [Etoposide] + N=C(N)NC(=N)NCCc1ccccc1 [Phenformin] (partner 250 µM)
Outline: (§1)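 Medians of duplicate plates are given as relative viability. That measure is the nuclei count in treated wells divided by the count in vehicle wells. Counts were taken on 4× images of lung cancer cell lines in 1536-well plates, 5 days after pin-tool dosing the day after seeding with one drug alone or a fixed anchor-drug dose plus five library-drug doses (not always all listed) in √10 steps.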

Etoposide + Alpelisib = compound: COc1cc([C@@H]2c3cc4c(cc3[C@@H](O[C@@H]3O[C@@H]5CO[C@@H](C)O[C@H]5[C@H](O)[C@H]3O)[C@H]3COC(=O)[C@H]23)OCO4)cc(OC)c1O [Etoposide] + Cc1nc(NC(=O)N2CCC[C@H]2C(N)=O)sc1-c1ccnc(C(C)(C)C(F)(F)F)c1 [Alpelisib] (partner 2 µM)
Outline: as §1

Etoposide + Palbociclib = compound: COc1cc([C@@H]2c3cc4c(cc3[C@@H](O[C@@H]3O[C@@H]5CO[C@@H](C)O[C@H]5[C@H](O)[C@H]3O)[C@H]3COC(=O)[C@H]23)OCO4)cc(OC)c1O [Etoposide] + CC(=O)c1c(C)c2cnc(Nc3ccc(N4CCNCC4)cn3)nc2n(C2CCCC2)c1=O [Palbociclib] (partner 0.5 µM)
Outline: as §1

Etoposide + Tozasertib = compound: COc1cc([C@@H]2c3cc4c(cc3[C@@H](O[C@@H]3O[C@@H]5CO[C@@H](C)O[C@H]5[C@H](O)[C@H]3O)[C@H]3COC(=O)[C@H]23)OCO4)cc(OC)c1O [Etoposide] + Cc1cc(Nc2cc(N3CCN(C)CC3)nc(Sc3ccc(NC(=O)C4CC4)cc3)n2)n[nH]1 [Tozasertib] (partner 0.1 µM)
Outline: as §1

Row | Cell Line | relative viability (Etoposide + Phenformin; first compound 0.01 µM) | relative viability (Etoposide + Phenformin; first compound 0.03162 µM) | relative viability (Etoposide + Phenformin; first compound 0.1 µM) | relative viability (Etoposide + Phenformin; first compound 0.3162 µM) | relative viability (Etoposide + Phenformin; first compound 1 µM) | relative viability (Etoposide + Alpelisib; first compound 0.01 µM) | relative viability (Etoposide + Alpelisib; first compound 0.03162 µM) | relative viability (Etoposide + Alpelisib; first compound 0.1 µM) | relative viability (Etoposide + Alpelisib; first compound 0.3162 µM) | relative viability (Etoposide + Alpelisib; first compound 1 µM) | relative viability (Etoposide + Palbociclib; first compound 0.01 µM) | relative viability (Etoposide + Palbociclib; first compound 0.03162 µM) | relative viability (Etoposide + Palbociclib; first compound 0.1 µM) | relative viability (Etoposide + Palbociclib; first compound 0.3162 µM) | relative viability (Etoposide + Palbociclib; first compound 1 µM) | relative viability (Etoposide + Tozasertib; first compound 0.01 µM) | relative viability (Etoposide + Tozasertib; first compound 0.03162 µM) | relative viability (Etoposide + Tozasertib; first compound 0.1 µM) | relative viability (Etoposide + Tozasertib; first compound 0.3162 µM) | relative viability (Etoposide + Tozasertib; first compound 1 µM)
1 | RERF-LC-KJ | 0.414 | 0.469 | 0.42 | 0.36 | 0.329 | 0.73 | 0.924 | 0.513 | 0.852 | 0.622 | 1.04 | 1.19 | 0.918 | 0.912 | 0.606 | 0.532 | 0.448 | 0.493 | 0.386 | 0.316
2 | NCI-H661 | 0.283 | 0.289 | 0.267 | 0.249 | 0.208 | 0.995 | 0.61 | 0.413 | 0.388 | 0.3 | 0.415 | 0.468 | 0.332 | 0.384 | 0.352 | 0.342 | 0.374 | 0.332 | 0.323 | 0.353
3 | PC-14 | 0.621 | 0.662 | 0.485 | 0.372 | 0.203 | 0.927 | 1.08 | 1.1 | 0.835 | 0.808 | 0.447 | 0.594 | 0.652 | 0.289 | 0.125 | 0.595 | 0.536 | 0.754 | 0.496 | 0.213
4 | COR-L 105 | 0.664 | 0.53 | 0.405 | 0.444 | 0.39 | 1.08 | 1.06 | 1.12 | 0.807 | 0.56 | 0.423 | 0.41 | 0.383 | 0.394 | 0.366 | 0.385 | 0.345 | 0.291 | 0.353 | 0.366
5 | NCI-H3122 | 0.351 | 0.382 | 0.377 | 0.281 | 0.197 | 0.748 | 0.752 | 0.728 | 0.595 | 0.402 | 0.218 | 0.219 | 0.164 | 0.182 | 0.165 | 0.441 | 0.324 | 0.262 | 0.281 | 0.159
6 | NCI-H1395 | 0.464 | 0.415 | 0.473 | 0.441 | 0.425 | 1.02 | 1.14 | 0.773 | 0.798 | 0.69 | 0.625 | 0.595 | 0.555 | 0.638 | 0.545 | 0.616 | 0.758 | 0.665 | 0.74 | 0.592
7 | NCI-H727 | 0.556 | 0.664 | – | 0.531 | 0.437 | 0.616 | 0.524 | 0.566 | 0.58 | 0.423 | 0.67 | 0.675 | 0.581 | 0.689 | 0.767 | 0.623 | 0.677 | – | 0.605 | 0.692
8 | NCI-H1915 | 0.38 | 0.361 | 0.429 | 0.346 | 0.324 | 0.999 | 1.17 | 0.967 | 0.99 | 0.631 | 0.471 | 0.569 | 0.506 | 0.459 | 0.375 | 0.438 | 0.459 | 0.473 | 0.353 | 0.308
